Read-outs that look alike come from different tables or passages of the source.
What was measured:
pyresis = test: Antipyretic activity according to Burn et al.; format: in vivo, rat; settings: for Reduction of the pyresis at hour 4: female rats
Description: Animals: 6 female rats for each group, average body weight 200 g.

phenylquinone writhes = test: Analgesic activity according to Hendershot et al., phenylquinone writhes, modified; format: in vivo, mouse
Description: Analgesic activity according to HENDERSHOT et al., Jour. Pharm.
The test was modified by numbering the writhes only along the time interval from 5 to 15 minutes since the injection of phenylquinone. The injection was made 2 hours after the oral administration of the compound to be tested.
Animals: 8 female mice for each group, average body weight: 25g

carrageenin paw edema = test: Antiinflammatory activity according to Winter et al., carrageenin paw edema, modified; format: in vivo, rat
Description: Antiinflammatory activity according to WINTER et al., Proc. Soc. Exp. Biol. Med.; 111, 544; 1962.
The test was modified in that the injection of carrageenin and the administration of the compound by gastric gavage were carried out simultaneously and the paw edema was measured at the plethysmograph after 4 hours.
Animals: 6 female rats for each group, average body weight: 150g

rats [1] = format: in vivo, rat; settings: for Gastrolesive effect, relative potency to piroxicam / Average number of lesions per animal / Gastrolesive effect, relative potency to naproxen: male rats, single oral administration; for Average number of lesions per animal: 100 mg/kg (maximum tested dose)
Description: The test was modified by increasing the fast period to 70 hours and giving the total dose of substance in one single oral administration.
Animals: 10 male rats for each group, average body weight: 150g.

Rat [2] = test: in vivo; format: in vivo
Rat [3] = settings: per os, literature value (footnotes a, b); cited from earlier work
in vivo [4] = settings: rat, in vivo, po
Description: (§1) Five days subacute toxicity in rats per os
(§2) Animals: 5 female rats for each group, average body weight: 150g.

rats [5] = test: in vivo; settings: 5 days, rats, per os
Description: as §1, §2

Mouse = settings: per os
in vivo [6] = settings: mouse, po
in vivo [7] = format: in vivo; settings: rat, in vivo, po; read-out: LD 50 (Litchfield and Wilcoxon)
[8] = 50 mg/g (so in the source) per os
[9] = 100 mg/g (so in the source) per os
[10] = Mus musculus, 50 mg/kg oral, 2 h before phenylquinone, 5-15 min, female mice
[11] = Mus musculus, 100 mg/kg oral, 2 h before phenylquinone, 5-15 min, female mice
[12] = Rattus norvegicus, po, 4 h, 50 mg/kg per os, female rats, read-out: % inhibition of the edema after 4 hours
[13] = Rattus norvegicus, po, 4 h, 100 mg/kg per os, female rats, read-out: % inhibition of the edema after 4 hours
[14] = 350 mg/kg/day, read-out: % of dead animals

Row | SMILES | Gastrolesive effect, relative potency to piroxicam (rats [1]) | LD 50, relative ratio to piroxicam (Rat [2]; per os) | Subacute toxicity, relative ratio to piroxicam (rats [5]) | LD 50, relative ratio to piroxicam (Mouse) | Antipyretic relative potency to naproxen (pyresis; [8]) | Antipyretic relative potency to piroxicam (pyresis; [8]) | Reduction of the pyresis at hour 4 (pyresis; [8]) | Antipyretic relative potency to naproxen (pyresis; [9]) | Antipyretic relative potency to piroxicam (pyresis; [9]) | Reduction of the pyresis at hour 4 (pyresis; [9]) | Analgesic relative potency to naproxen (phenylquinone writhes; 50 mg/kg oral) | Analgesic relative potency to piroxicam (phenylquinone writhes; 50 mg/kg oral) | Analgesic relative potency to naproxen (phenylquinone writhes; 100 mg/kg oral) | Analgesic relative potency to piroxicam (phenylquinone writhes; 100 mg/kg oral) | inhibition in vivo at 50 mg/kg (phenylquinone writhes; [10]) | inhibition in vivo at 100 mg/kg (phenylquinone writhes; [11]) | Antiinflammatory relative potency to naproxen (carrageenin paw edema; 50 mg/kg per os) | Antiinflammatory relative potency to piroxicam (carrageenin paw edema; 50 mg/kg per os) | Antiinflammatory relative potency to naproxen (carrageenin paw edema; 100 mg/kg per os) | Antiinflammatory relative potency to piroxicam (carrageenin paw edema; 100 mg/kg per os) | further results
1 | CN1C(C(=O)Nc2ccccn2)=C(O)c2ccccc2S1(=O)=O [Piroxicam, piroxicam, reference compound] | 1 | 1 | 1 | 1 |  |  |  |  |  |  |  |  |  |  |  |  |  |  |  |  | Reduction of the pyresis at hour 4 (pyresis; 10 mg/g (so in the source) per os): 0.89 °C; inhibition in vivo at 10 mg/kg (phenylquinone writhes; Mus musculus, 10 mg/kg oral, 2 h before phenylquinone, 5-15 min, female mice): 46%; inhibition in vivo at 10 mg/kg (carrageenin paw edema; Rattus norvegicus, po, 4 h, 10 mg/kg per os, female rats, read-out: % inhibition of the edema after 4 hours): 45%; Gastric ulcerogenicity (in words) (rats [1]; rat, in vivo): considerable gastrolesive power; LD 50 (Litchfield and Wilcoxon) (Rat [3]): 270 mg/kg; mortality at 120 h (in vivo [4]; 20 mg/kg/day): 0%; mortality (in vivo [4]; 30 mg/kg/day): 6%; mortality at 120 h (in vivo [4]; 30 mg/kg/day): 40%
2 | CN(C)CCCNC(=O)c1nn(-c2cccc(F)c2)c2c1N(C)S(=O)(=O)c1ccccc1-2 [Compound I-21] | 100 | 8.4 | 17 | 4.2 | 0.4 | 0.5 | 0.47 °C | 0.7 | 0.8 | 0.75 °C | 1.4 | 1.0 | 2.0 | 1.4 | 47% | 65% | 0.6 | 0.3 | 0.9 | 0.4 | inhibition in vivo at 50 mg/kg (carrageenin paw edema; [12]): 12%; inhibition in vivo at 100 mg/kg (carrageenin paw edema; [13]): 19%; Average number of lesions per animal (rats [1]): 0; Gastrolesive effect, relative potency to naproxen (rats [1]): > 20; LD50 (in vivo [6]): 1520 mg/kg; LD50 (in vivo [7]): 2260 mg/kg; LD 50, relative ratio to naproxen (Rat [2]; per os): 4.2; mortality at 120 h (in vivo [4]; [14]): 0%; Subacute toxicity, relative ratio to naproxen (rats [5]): 7; LD 50, relative ratio to naproxen (Mouse): 1.2
3 | CCN(CC)CCNC(=O)c1nn(-c2cccc(F)c2)c2c1N(C)S(=O)(=O)c1ccccc1-2 [Compound I-20] | 100 | 8.2 | 17 | 4.4 | 0.4 | 0.5 | 0.45 °C | 0.7 | 0.8 | 0.75 °C | 1.3 | 1.0 | 2.2 | 1.6 | 44% | 72% | 0.7 | 0.3 | 1.0 | 0.5 | inhibition in vivo at 50 mg/kg (carrageenin paw edema; [12]): 15%; inhibition in vivo at 100 mg/kg (carrageenin paw edema; [13]): 21%; Average number of lesions per animal (rats [1]): 0; Gastrolesive effect, relative potency to naproxen (rats [1]): > 20; LD50 (in vivo [6]): 1600 mg/kg; LD50 (in vivo [7]): 2220 mg/kg; LD 50, relative ratio to naproxen (Rat [2]; per os): 4.1; mortality at 120 h (in vivo [4]; [14]): 0%; Subacute toxicity, relative ratio to naproxen (rats [5]): 7; LD 50, relative ratio to naproxen (Mouse): 1.3
4 | CN1c2c(C(=O)NCCCN3CCOCC3)nn(-c3ccccc3)c2-c2ccccc2S1(=O)=O [Compound I-3] | 100 |  | 10 | 6.1 | 0.7 | 0.9 | 0.77 °C | 1.0 | 1.2 | 1.08 °C | 1.0 | 0.7 | 1.8 | 1.3 | 33% | 60% | 0.4 | 0.2 | 0.7 | 0.3 | inhibition in vivo at 50 mg/kg (carrageenin paw edema; [12]): 9%; inhibition in vivo at 100 mg/kg (carrageenin paw edema; [13]): 15%; Average number of lesions per animal (rats [1]): 0; Gastrolesive effect, relative potency to naproxen (rats [1]): > 20; LD50 (in vivo [6]): 2200 mg/kg; LD50 (in vivo [7]): 1080 mg/kg; LD 50, relative ratio to piroxicam (Rat [2]; in vivo): 4.0; mortality at 120 h (in vivo [4]; 200 mg/kg/day, read-out: % of dead animals): 0%; Subacute toxicity, relative ratio to naproxen (rats [5]): 4; LD 50, relative ratio to naproxen (Mouse): 1.8
